# Source: patent publication US20250009745A1, “CDK INHIBITOR” (SHANGHAI QILU PHARMACEUTICAL RESEARCH AND DEVELOPMENT …, priority 2021, published 2025)
# Like-named read-outs stand apart in the source and are kept apart here.
# How the values were obtained:
# Test in all cases: CDK enzymology experiment in vitro, capillary mobility shift assay (MSA)
# Format in all cases: biochemical
# CDK4 = target: T1, CDK4 (Homo sapiens, UniProt P11802); conditions: read-out: CDK4 (nM) inhibitory IC50
# T1 construct: purchased Carna Company
# T1 sequence (P11802 whole entry): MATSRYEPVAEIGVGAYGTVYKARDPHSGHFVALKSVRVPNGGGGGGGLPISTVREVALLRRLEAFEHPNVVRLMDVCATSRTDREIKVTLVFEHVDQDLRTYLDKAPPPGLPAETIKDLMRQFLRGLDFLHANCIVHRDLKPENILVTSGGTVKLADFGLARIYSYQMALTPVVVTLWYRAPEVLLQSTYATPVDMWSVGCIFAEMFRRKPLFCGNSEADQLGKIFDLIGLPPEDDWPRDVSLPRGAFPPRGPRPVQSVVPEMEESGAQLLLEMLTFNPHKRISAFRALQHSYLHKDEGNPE
# T1 sequence (P30281 whole entry partner): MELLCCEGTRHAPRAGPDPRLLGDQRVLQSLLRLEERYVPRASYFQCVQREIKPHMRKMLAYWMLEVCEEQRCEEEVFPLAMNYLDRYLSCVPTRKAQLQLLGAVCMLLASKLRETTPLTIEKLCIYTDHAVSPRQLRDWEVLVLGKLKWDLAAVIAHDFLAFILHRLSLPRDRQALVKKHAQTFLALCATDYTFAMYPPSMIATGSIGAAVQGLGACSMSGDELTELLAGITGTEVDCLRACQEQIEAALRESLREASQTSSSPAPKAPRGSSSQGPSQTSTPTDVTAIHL
# Experimental: (§1) CDK1/CDK2/CDK4/CDK6/CDK7/CDK9 were purchased from Carna Company; Carliper substrate CTD3/substrate 18/substrate 8 were purchased from Gil Biochemical Company; Dinaciclib/Palbociclib were purchased from Selleckchem Company; DMSO was purchased from Sigma Company; 384-well plates were purchased from Corning Company.
# (§2) • (1) Preparation of 1×Kinase buffer. • (2) Preparation of compound concentration gradient: Test concentration of the test compound was started at 1 μM, 10 μM or 30 μM, 3-fold dilution, 10 concentrations, detected in duplicate. The test compound was diluted to a 100-fold final concentration with 100% DMSO solution in a 384 source plate. Liquid handler Echo 550 was used to transfer 250 nL of 100-fold final concentration of the compound to the target plate 384-well plate. […] The 384-well plate was centrifuged at 1000 rpm for 30 seconds, and shaken to mix uniformly. • (10) The conversion rate was read with Caliper EZ Reader.
# (§3) Where, conversion %_sample is the readings of conversion rate of the sample; conversion %_min: the average value of negative control wells, representing the readings of conversion rate of wells without enzyme activity; conversion %_max: the average value of positive control wells, representing the readings of conversion rate of wells without compound inhibition.
# (§4) Taking the log value of the concentration as the X-axis, and the percentage inhibition rate as the Y-axis, the dose-effect curve was fitted using the log(inhibitor) vs. response—Variable slope of the analysis software GraphPad Prism 5 so as to obtain the IC50 value of each compound on the enzyme activity.
# (§5) Y=Bottom+(Top−Bottom)/(1+10^((Log IC50−X)*HillSlope)). Calculation formula: […]
# CDK2 = target: T2, CDK2 (Homo sapiens, UniProt P24941); conditions: read-out: CDK2 (nM) inhibitory IC50
# T2 construct: purchased Carna Company
# Experimental: as §1, §2, §3, §4, §5
# CDK6 = target: T3, CDK6 (Homo sapiens, UniProt Q00534)
# T3 construct: purchased Carna Company
# T3 sequence (Q00534 whole entry): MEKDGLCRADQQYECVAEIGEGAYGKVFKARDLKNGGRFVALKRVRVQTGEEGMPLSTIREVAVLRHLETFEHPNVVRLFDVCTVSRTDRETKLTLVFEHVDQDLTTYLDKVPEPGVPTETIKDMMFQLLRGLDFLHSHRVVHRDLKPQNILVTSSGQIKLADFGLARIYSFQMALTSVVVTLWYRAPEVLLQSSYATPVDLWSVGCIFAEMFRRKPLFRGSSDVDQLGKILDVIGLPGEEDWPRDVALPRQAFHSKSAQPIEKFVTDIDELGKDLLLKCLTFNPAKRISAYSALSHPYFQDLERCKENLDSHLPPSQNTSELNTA
# T3 sequence (P30281 whole entry partner): as the sequence (P30281 whole entry partner) above
# Experimental: as §1
# as §2, with “The test compound was diluted to a 100-fold final concentration with 100% DMSO solution in a 384 source plate.” left out
# as §3, §4, §5
# [1] = read-out: CDK6 (nM) inhibitory IC50
Compound,IC50 (CDK4) [nM],IC50 (CDK2) [nM],IC50 (CDK6; [1]) [nM],IC50 (CDK6) [nM]
O=S(=O)(c1ccc(N2CC3CCC(C2)N3)cc1)N1CCC(Nc2ncc(C(F)(F)F)c(O[C@H]3CCOC3)n2)CC1 [Compound 181],0.5 to 2.5,< 0.5,–,0.5 to 2.5
O=S(=O)(c1ccc(N2C3CCC2CNC3)cc1)N1CCC(Nc2ncc(C(F)(F)F)c(O[C@H]3CCOC3)n2)CC1 [Compound 195],0.5 to 2.5,< 0.5,0.5 to 2.5,–
CN(C)CCn1cc(S(=O)(=O)N2CCC(Nc3ncc(C(F)(F)F)c(O[C@H]4CCOC4)n3)CC2)cn1 [Compound 157],2.5 to 10,< 0.5,10 to 50,–
Cn1cc(S(=O)(=O)N2CCC(Nc3ncc(C#N)c(NC4CCC4)n3)CC2)cn1 [Compound 76],10 to 50,2.5 to 10,–,–
"Cn1cc(S(=O)(=O)N2CCC(Nc3ncc(C#N)c(O[C@@H]4CCC[C@H]4O)n3)CC2)cn1 (single isomer, unassigned) [Compound 67]",10 to 50,2.5 to 10,–,–
Cn1cc(S(=O)(=O)N2CCC(Nc3ncc(C#N)c(N[C@@H]4CCC[C@@]4(C)O)n3)CC2)cn1 (racemic) [Example 19],10 to 50,2.5 to 10,–,–
"Cn1cc(S(=O)(=O)N2CCC(Nc3ncc(C#N)c(O[C@H]4CC[C@H](O)C4)n3)CC2)cn1 (single isomer, unassigned) [Compound 56]",50 to 100,2.5 to 10,–,–
Cn1cc(S(=O)(=O)N2CCC(Nc3cc(O[C@H]4CCOC4)c(C#N)cn3)CC2)cn1 [Compound 158],10 to 50,2.5 to 10,–,–
Cn1cc(S(=O)(=O)N2CCC(Nc3ncc(C#N)c(N[C@H]4C[C@@H](O)C4)n3)CC2)cn1 [Compound 77],10 to 50,2.5 to 10,–,–
Cn1cc(S(=O)(=O)N2CCC(Nc3ncc(C#N)c(NC(C)(C)C)n3)CC2)cn1 [Compound 42],10 to 50,10 to 50,–,–
"Cn1cc(S(=O)(=O)N2CCC(Nc3ncc(C#N)c(CC4CCCC4)n3)CC2)cn1 [Example 10, 4-(Cyclopentylmethyl)-2-((1-((1-methyl-1H-pyrazol-4-yl)sulfonyl)piperidin-4-yl)amino)pyrimidine-5-carbonitrile]",10 to 50,2.5 to 10,–,–
Cn1cc(S(=O)(=O)N2CCC(Nc3ncc(C#N)c(NC4CCCC4(F)F)n3)CC2)cn1 (centres unmarked) [Compound 37],2.5 to 10,2.5 to 10,–,–
Cn1cc(S(=O)(=O)N2CCC(Nc3ncc(C#N)c([S+]([O-])C4CCCC4)n3)CC2)cn1 (centres unmarked) [Compound 98],10 to 50,< 0.5,–,–
CN1CC[C@H](Oc2nc(NC3CCN(S(=O)(=O)c4cnn(C)c4)CC3)ncc2C#N)C1 [Compound 74],50 to 100,10 to 50,–,–
Cn1cc(S(=O)(=O)N2CC[C@H](Nc3ncc(C(F)(F)F)c(O[C@H]4CCOC4)n3)[C@H](F)C2)cn1 [Compound 127],10 to 50,< 0.5,–,–
"Cn1cc(S(=O)(=O)N2CCC(Nc3ncc(C#N)c(N[C@H]4CCC[C@]4(C)O)n3)CC2)cn1 (single isomer, unassigned) [Example 21]",10 to 50,2.5 to 10,–,–
CN(c1nc(NC2CCN(S(=O)(=O)c3cnn(C)c3)CC2)ncc1C#N)C1CCCC1 [Compound 39],2.5 to 10,0.5 to 2.5,–,–
Cn1cc(S(=O)(=O)N2CCC(Nc3ncc(C(F)F)c(O[C@H]4CCOC4)n3)CC2)cn1 [Compound 126],100 to 1000,10 to 50,–,–
Cn1cc(S(=O)(=O)N2CCC(Nc3ncc(C(F)(F)F)c(O[C@H]4CCOC4)n3)[C@@H](F)C2)cn1 (some centres unmarked) [Compound 120],10 to 50,2.5 to 10,–,–
Cn1cc(S(=O)(=O)N2CCC(Nc3ncc(C#N)c(O[C@@H]4CCOC4)n3)CC2)cn1 [Compound 89],50 to 100,10 to 50,–,–
Cn1cc(S(=O)(=O)N2CCC(Nc3ncc(C#N)c(N[C@@H]4CCOC4)n3)CC2)cn1 [Compound 43],100 to 1000,10 to 50,–,–
CN1CCC(S(=O)(=O)N2CCC(Nc3ncc(C#N)c(NC4CCCC4)n3)CC2)CC1 [Compound 85],10 to 50,2.5 to 10,–,–

# Now from value to molecule, other results behind:
IC50 (CDK4) [nM],IC50 (CDK2) [nM],IC50 (CDK6; [1]) [nM],Compound,IC50 (CDK6) [nM]
2.5 to 10,0.5 to 2.5,0.5 to 2.5,Cn1cc(-c2ccc(S(=O)(=O)N3CCC(Nc4ncc(C#N)c(N[C@H]5CCC[C@H]5O)n4)CC3)cc2)cn1 [Compound 51],–
0.5 to 2.5,< 0.5,0.5 to 2.5,CN1CCN(c2ccc(S(=O)(=O)N3CCC(Nc4ncc(C(F)(F)F)c(O[C@H]5CCOC5)n4)CC3)cc2)CC1 [Compound 204],–
2.5 to 10,0.5 to 2.5,0.5 to 2.5,O=S(=O)(c1ccc(C2=CCNCC2)cc1)N1CCC(Nc2ncc(C(F)(F)F)c(NC3CCCC3(F)F)n2)CC1 (centres unmarked) [Compound 136],–
0.5 to 2.5,< 0.5,0.5 to 2.5,Cc1cc(S(=O)(=O)N2CCC(Nc3ncc(C(F)(F)F)c(O[C@H]4CCOC4)n3)CC2)cnc1N1CCNCC1 [Compound 175],–
0.5 to 2.5,< 0.5,0.5 to 2.5,N#Cc1cnc(NC2CCN(S(=O)(=O)c3ccc(N4CCC(O)CC4)cc3)CC2)nc1NC1CCCC1 [Compound 107],–
10 to 50,0.5 to 2.5,–,Cn1cc(S(=O)(=O)N2CCC(Nc3ncc(C(F)(F)F)c(N[C@@H]4CCC[C@H]4O)n3)CC2)cn1 [Compound 54],–
50 to 100,2.5 to 10,–,Cn1cc(S(=O)(=O)N2CCC(Nc3ncc(C(F)(F)F)c(O[C@@H]4COC[C@@H]4O)n3)CC2)cn1 (relative stereo) [Compound 111],–
2.5 to 10,0.5 to 2.5,–,Cn1cc(S(=O)(=O)N2CCC(Nc3ncc(C(F)(F)F)c(OC4CCCC4)n3)CC2)cn1 [Compound 40],–
2.5 to 10,0.5 to 2.5,–,Cn1cc(-c2ccc(S(=O)(=O)N3CCC(Nc4cc(N[C@H]5CCOC5)c(C#N)cn4)CC3)cc2)cn1 [Compound 166],–
10 to 50,2.5 to 10,–,"Cn1cc(S(=O)(=O)N2CCC(Nc3ncc(C#N)c(N[C@@H]4CC[C@@H](O)C4)n3)CC2)cn1 (single isomer, unassigned) [Compound 53]",–
2.5 to 10,0.5 to 2.5,–,O=S(=O)(c1cnn(C2CCOCC2)c1)N1CCC(Nc2ncc(C(F)(F)F)c(O[C@H]3CCOC3)n2)CC1 [Compound 108],–
2.5 to 10,0.5 to 2.5,–,O=S(=O)(c1ccc(Br)cc1)N1CCC(Nc2ncc(C(F)(F)F)c(O[C@H]3CCOC3)n2)CC1 [Example 99],–
100 to 1000,10 to 50,–,Cn1cc(S(=O)(=O)N2CCC(Nc3ncc(C#N)c(N[C@H]4CCC[C@@H]4O)n3)CC2)cn1 [Compound 46],–
10 to 50,2.5 to 10,–,"Cn1cc(S(=O)(=O)N2CCC(Nc3ncc(C#N)c(N[C@H]4CC[C@@H](O)C4)n3)CC2)cn1 (single isomer, unassigned) [Example 12]",–
2.5 to 10,0.5 to 2.5,–,O=S(=O)(c1ccc(C2=CCNCC2)cc1)N1CCC(Nc2ncc(C(F)(F)F)c(C=C3CCCC3)n2)CC1 [Compound 201],–
2.5 to 10,< 0.5,–,O=S(=O)(c1cn[nH]c1)N1CCC(Nc2ncc(C(F)(F)F)c(O[C@H]3CCOC3)n2)CC1 [Example 25],–
2.5 to 10,0.5 to 2.5,–,Cn1cc(-c2ccc(S(=O)(=O)N3CCC(Nc4ncc(C#N)c(N[C@@H]5CCC[C@@H]5O)n4)CC3)cc2)cn1 [Compound 61],–
10 to 50,0.5 to 2.5,–,N#Cc1cnc(NC2CCN(S(=O)(=O)c3ccc(-c4cn[nH]c4)cc3)CC2)nc1N[C@H]1CCOC1 [Compound 105],–
10 to 50,0.5 to 2.5,–,Cn1cc(-c2ccc(S(=O)(=O)N3CCC(Nc4ncc(C#N)c(N[C@@H]5CCOC5)n4)CC3)cc2)cn1 [Compound 95],–
10 to 50,2.5 to 10,–,"Cn1cc(S(=O)(=O)N2CCC(Nc3ncc(C#N)c(O[C@H]4CCC[C@@H]4O)n3)CC2)cn1 (single isomer, unassigned) [Compound 66]",–
10 to 50,2.5 to 10,–,"Cn1cc(S(=O)(=O)N2CCC(Nc3ncc(C#N)c(N[C@@H]4CC[C@H](O)C4)n3)CC2)cn1 (single isomer, unassigned) [Example 13]",–
2.5 to 10,0.5 to 2.5,–,O=S(=O)(c1ccc(C2=CCNCC2)cc1)N1CCC(Nc2ncc(C(F)(F)F)c(N[C@@H]3CCC[C@H]3O)n2)CC1 [Compound 102],–
10 to 50,2.5 to 10,–,"CN1CCN(Cc2ccc(S(=O)(=O)N3CCC(Nc4ncc(C#N)c(NC5CCCC5)n4)CC3)cc2)CC1 [Example 22, 4-(Cyclopentylamino)-2-((1-((4-((4-methylpiperazin-1-yl)methyl)phenyl)sulfonyl)piperidin-4-yl)amino)pyrimidine-5-carbonitrile]",–
